In patent US6331551A, “Methods of treating microbial infection and therapeutic formulations therefor” (priority 2000, dated 2001):
In brackets after ≈: the same amount, converted by molar mass. Values belong to the compound of their own block, whether it stands above or below them.

Key:
[1] = test system: Agrobacterium tumefaciens; assay: Disk zone of inhibition / antibacterial activity; type: cell-based; parameters: key to Zone of inhibition: +++: High inhibition; ++: moderate inhibition; +: low inhibition; -: non inhibition; conditions: A. tumefaciens; for MIC: Agrobacterium tumefaciens
Procedure: (§1) The following seven bacteria were grown on nutrient agar slants for 48 hours at 37° C.: Enterobacter aerogens, Propionibacterium acnes, Pseudomonas aeruginosa, Escherichia coli, Bacillus subtilis, Agrobacterium tumefaciens, and Staphylococcus aureus.
(§2) A bacterial colony from each of the respective slants was suspended in 1 ml sterile deionized water. 0.1 ml of each cell suspension was evenly spread on nutrient agar plates (10×10^5 cells/ml). After 30 min, sclareol and sclareolide-impregnated disks were placed on bacteria-lawned plates. The sclareol and sclareolide used in this experiment were relatively pure samples (greater than 99% pure). Triplicate disks of (10, 100, 500, and 1000 ug/disk) of each sample was applied on to 6 mm diameter (0.3 mm thickness) filter paper disks and air dried. Controls were prepared with respective solvents. Plates were incubated for 24-48 hr at 37° C. The inhibition zones were measured and recorded after 15 hr, up to 48 hr.
(§3) A summary of the effects of sclareol and sclareolide against the bacteria and fungi tested in Examples 1 and 2 is provided in Table 3. The data is presented as the effect of sclareol and sclareolide on selected microbial cultures, in terms of minimum inhibitory concentration, as measured in μg/ml.

Bacillus subtilis = assay: Disk zone of inhibition / antibacterial activity; type: cell-based; parameters: key to Zone of inhibition: +++: High inhibition; ++: moderate inhibition; +: low inhibition; -: non inhibition; conditions: for MIC: Bacillus subtilis, B. subtilis; for Zone of inhibition: D. subtilis [sic]
Procedure: as §1, §2, §3

Enterobacter aerogens = assay: Disk zone of inhibition / antibacterial activity; type: cell-based; parameters: key to Zone of inhibition: +++: High inhibition; ++: moderate inhibition; +: low inhibition; -: non inhibition; conditions: E. aerogens; for MIC: Enterobacter
Procedure: as §1, §2, §3

Escherichia coli = assay: Disk zone of inhibition / antibacterial activity; type: cell-based; parameters: key to Zone of inhibition: +++: High inhibition; ++: moderate inhibition; +: low inhibition; -: non inhibition; conditions: E. coli; for MIC: Escherichia coli
Procedure: as §1, §2, §3

Propionibacterium acnes = assay: Disk zone of inhibition / antibacterial activity; type: cell-based; parameters: key to Zone of inhibition: +++: High inhibition; ++: moderate inhibition; +: low inhibition; -: non inhibition; conditions: P. acnes; for MIC: Cutibacterium acnes
Procedure: as §1, §2, §3

Pseudomonas aeruginosa = assay: Disk zone of inhibition / antibacterial activity; type: cell-based; parameters: key to Zone of inhibition: +++: High inhibition; ++: moderate inhibition; +: low inhibition; -: non inhibition; conditions: P. aeruginosa; for MIC: Pseudomonas aeruginosa
Procedure: as §1, §2, §3

Staphylococcus aureus = assay: Disk zone of inhibition / antibacterial activity; type: cell-based; parameters: key to Zone of inhibition: +++: High inhibition; ++: moderate inhibition; +: low inhibition; -: non inhibition; conditions: S. aureus; for MIC: Staphylococcus aureus
Procedure: as §1, §2, §3

Aspergillus flavus = assay: Antifungal MIC on potato dextrose agar; type: cell-based; conditions: PDA, 26° C., 48 hr up to one week
Procedure: (§4) The yeast and fungi listed below in Table 2 were grown on potato dextrose agar (PDA) containing different concentrations of sclareol and sclareolide, according to the following method: sclareol or sclareolide (in powder form) was added to pre-measured amounts of PDA medium in petri plates, mixed thoroughly by tilting the petri plate from side to side, and allowed to solidify. The sclareol and […] in preparing the petri plates was of greater than 99% purity. After solidification, the plates were inoculated with 5 mm disks, cut from the outer margin of the actively growing cultures of yeast and fungi and placed in the center of the plate in an inverted position in direct contact with the sclareol/sclareolide impregnated medium. The plates were incubated at 26° C. The plates were monitored periodically to estimate the minimum inhibitory concentration (MIC) based on the growth proliferation from the 5 mm inoculum disk. The results were measured and recorded after 48 hr, up to one week. A summary of the effects of sclareol and sclareolide against the bacteria and fungi tested in Examples 1 and 2 is provided in Table 3. The data is presented as the effect of sclareol and sclareolide on selected microbial cultures, in terms of minimum inhibitory concentration, as measured in μg/ml.

Candida kefyr = assay: Antifungal MIC on potato dextrose agar; type: cell-based; conditions: Kluyveromyces marxianus, PDA, 26° C., 48 hr up to one week
Procedure: as §4

Penicillium notatum = assay: Antifungal MIC on potato dextrose agar; type: cell-based; conditions: Penicillium chrysogenum, PDA, 26° C., 48 hr up to one week
Procedure: as §4

Saccharomyces cerevisiae = assay: Antifungal MIC on potato dextrose agar; type: cell-based; conditions: PDA, 26° C., 48 hr up to one week
Procedure: as §4

[2] = test system: Gram positive bacteria, specifically, S. aureus and P. acnes; assay: Disk antibacterial test, Gram positive bacteria; type: cell-based
Procedure: as §1, §2

bacteria tested = assay: Disk antibacterial test, overall; type: cell-based; conditions: in general
Procedure: as §1, §2

gram negative acne = conditions: oral, subsequent to oral tetracycline or erythromycin; Poli et al. 1988; cited from earlier work

- MIC [1]: 10 µg/mL (≈ 39.9 µM)
- MIC (Bacillus subtilis): 10 µg/mL (≈ 39.9 µM)
- MIC (Enterobacter aerogens): 10 µg/mL (≈ 39.9 µM)
- MIC (Escherichia coli): 500 µg/mL (≈ 2000 µM)
- MIC (Propionibacterium acnes): 40 µg/mL (≈ 160 µM)
- MIC (Pseudomonas aeruginosa): 500 µg/mL (≈ 2000 µM)
- MIC (Staphylococcus aureus): 50 µg/mL (≈ 200 µM)
- MIC (Aspergillus flavus): 1000 µg/mL (≈ 3990 µM)
- MIC (Candida kefyr): 400 µg/mL (≈ 1600 µM)
- MIC (Penicillium notatum): 1000 µg/mL (≈ 3990 µM)
- MIC (Saccharomyces cerevisiae): 500 µg/mL (≈ 2000 µM)
SMILES: CC1(C)CCCC2(C)C1CCC1(C)OC(=O)CC12 (single isomer, unassigned) [Sclareolide, sclareolide]
- Zone of inhibition ([1]; 10 ug/disk): +
- Zone of inhibition ([1]; 100 ug/disk): ++
- Zone of inhibition ([1]; 500 ug/disk): +++
- Zone of inhibition ([1]; 1000 ug/disk): +++
- Zone of inhibition (Bacillus subtilis; 10 ug/disk): +
- Zone of inhibition (Bacillus subtilis; 100 ug/disk): +
- Zone of inhibition (Bacillus subtilis; 500 ug/disk): +
- Zone of inhibition (Bacillus subtilis; 1000 ug/disk): ++
- sensitivity to treatment (Enterobacter aerogens): more sensitive
- Zone of inhibition (Enterobacter aerogens; 10 ug/disk): +
- Zone of inhibition (Enterobacter aerogens; 100 ug/disk): ++
- Zone of inhibition (Enterobacter aerogens; 500 ug/disk): +++
- Zone of inhibition (Enterobacter aerogens; 1000 ug/disk): +++
- sensitivity to treatment (Escherichia coli): least sensitive
- Zone of inhibition (Escherichia coli; 10 ug/disk): -
- Zone of inhibition (Escherichia coli; 100 ug/disk): -
- Zone of inhibition (Escherichia coli; 500 ug/disk): +
- Zone of inhibition (Escherichia coli; 1000 ug/disk): ++
- sensitivity to treatment (Propionibacterium acnes): more sensitive
- Zone of inhibition (Propionibacterium acnes; 10 ug/disk): +
- Zone of inhibition (Propionibacterium acnes; 100 ug/disk): +++
- Zone of inhibition (Propionibacterium acnes; 500 ug/disk): +++
- Zone of inhibition (Propionibacterium acnes; 1000 ug/disk): +++
- sensitivity to treatment (Pseudomonas aeruginosa): least sensitive
- Zone of inhibition (Pseudomonas aeruginosa; 10 ug/disk): -
- Zone of inhibition (Pseudomonas aeruginosa; 100 ug/disk): -
- Zone of inhibition (Pseudomonas aeruginosa; 500 ug/disk): ++
- Zone of inhibition (Pseudomonas aeruginosa; 1000 ug/disk): ++
- sensitivity to treatment (Staphylococcus aureus): more sensitive
- Zone of inhibition (Staphylococcus aureus; 10 ug/disk): +
- Zone of inhibition (Staphylococcus aureus; 100 ug/disk): ++
- Zone of inhibition (Staphylococcus aureus; 500 ug/disk): +++
- Zone of inhibition (Staphylococcus aureus; 1000 ug/disk): +++
- activity against Gram positive bacteria [2]: more active against Gram positive bacteria

SMILES: C=C[C@](C)(O)CC[C@@H]1[C@@]2(C)CCCC(C)(C)[C@@H]2CC[C@@]1(C)O [Sclareol, sclareol]
- Zone of inhibition ([1]; 10 ug/disk): +
- Zone of inhibition ([1]; 100 ug/disk): ++
- Zone of inhibition ([1]; 500 ug/disk): +++
- Zone of inhibition ([1]; 1000 ug/disk): +++
- MIC [1]: 10 µg/mL (≈ 32.4 µM)
- MIC (Bacillus subtilis): 10 µg/mL (≈ 32.4 µM)
- Zone of inhibition (Bacillus subtilis; 10 ug/disk): +
- Zone of inhibition (Bacillus subtilis; 100 ug/disk): +
- Zone of inhibition (Bacillus subtilis; 500 ug/disk): ++
- Zone of inhibition (Bacillus subtilis; 1000 ug/disk): ++
- sensitivity to treatment (Enterobacter aerogens): more sensitive
- Zone of inhibition (Enterobacter aerogens; 10 ug/disk): +
- Zone of inhibition (Enterobacter aerogens; 100 ug/disk): +++
- Zone of inhibition (Enterobacter aerogens; 500 ug/disk): +++
- Zone of inhibition (Enterobacter aerogens; 1000 ug/disk): +++
- MIC (Enterobacter aerogens): 10 µg/mL (≈ 32.4 µM)
- sensitivity to treatment (Escherichia coli): least sensitive
- Zone of inhibition (Escherichia coli; 10 ug/disk): -
- Zone of inhibition (Escherichia coli; 100 ug/disk): -
- Zone of inhibition (Escherichia coli; 500 ug/disk): +
- Zone of inhibition (Escherichia coli; 1000 ug/disk): ++
- MIC (Escherichia coli): 500 µg/mL (≈ 1620 µM)
- MIC (Propionibacterium acnes): 40 µg/mL (≈ 130 µM)
- sensitivity to treatment (Propionibacterium acnes): more sensitive
- Zone of inhibition (Propionibacterium acnes; 10 ug/disk): +
- Zone of inhibition (Propionibacterium acnes; 100 ug/disk): +++
- Zone of inhibition (Propionibacterium acnes; 500 ug/disk): +++
- Zone of inhibition (Propionibacterium acnes; 1000 ug/disk): +++
- sensitivity to treatment (Pseudomonas aeruginosa): least sensitive
- Zone of inhibition (Pseudomonas aeruginosa; 10 ug/disk): -
- Zone of inhibition (Pseudomonas aeruginosa; 100 ug/disk): +
- Zone of inhibition (Pseudomonas aeruginosa; 500 ug/disk): ++
- Zone of inhibition (Pseudomonas aeruginosa; 1000 ug/disk): ++
- MIC (Pseudomonas aeruginosa): 100 µg/mL (≈ 324 µM)
- sensitivity to treatment (Staphylococcus aureus): more sensitive
- Zone of inhibition (Staphylococcus aureus; 10 ug/disk): +
- Zone of inhibition (Staphylococcus aureus; 100 ug/disk): ++
- Zone of inhibition (Staphylococcus aureus; 500 ug/disk): +++
- Zone of inhibition (Staphylococcus aureus; 1000 ug/disk): +++
- MIC (Staphylococcus aureus): 50 µg/mL (≈ 162 µM)
- MIC (Aspergillus flavus): 1000 µg/mL (≈ 3240 µM)
- MIC (Candida kefyr): 100 µg/mL (≈ 324 µM)
- MIC (Penicillium notatum): 1000 µg/mL (≈ 3240 µM)
- MIC (Saccharomyces cerevisiae): 500 µg/mL (≈ 1620 µM)
- relative activity against the bacteria tested (bacteria tested): more active than sclareolide
- activity against Gram positive bacteria [2]: more active against Gram positive bacteria

SMILES: CC1(C)S[C@@H]2[C@H](NC(=O)[C@H](N)c3ccc(O)cc3)C(=O)N2[C@H]1C(=O)O [amoxicillin]
- effectiveness in treating gram negative acne (gram negative acne): effective

SMILES: CC1(C)S[C@@H]2[C@H](NC(=O)[C@H](N)c3ccccc3)C(=O)N2[C@H]1C(=O)O [ampicillin]
- effectiveness in treating gram negative acne (gram negative acne): effective
